In PMC9850727, “Benzoxazolone-5-Urea Derivatives as Human Soluble Epoxide Hydrolase (sEH) Inhibitors” (ACS Omega, 2023):

Legend:
human recombinant sEH = target: T1, human recombinant sEH (Homo sapiens, UniProt P34913); experiment: Cell-free sEH activity assay (fluorescence-based, PHOME substrate); format: biochemical; settings: mean ± SEM, n = 3, benzoxazolone-ureas (Table 2); for sEH activity % of control at 1 μM / sEH activity % of control at 10 μM: residual activity; for IC50: cell-free assay
T1 construct: made in house; host or cells: Sf9 cells infected with recombinant baculovirus (from Dr. Bruce Hammock, UC Davis)
T1 sequence (P34913 1-555): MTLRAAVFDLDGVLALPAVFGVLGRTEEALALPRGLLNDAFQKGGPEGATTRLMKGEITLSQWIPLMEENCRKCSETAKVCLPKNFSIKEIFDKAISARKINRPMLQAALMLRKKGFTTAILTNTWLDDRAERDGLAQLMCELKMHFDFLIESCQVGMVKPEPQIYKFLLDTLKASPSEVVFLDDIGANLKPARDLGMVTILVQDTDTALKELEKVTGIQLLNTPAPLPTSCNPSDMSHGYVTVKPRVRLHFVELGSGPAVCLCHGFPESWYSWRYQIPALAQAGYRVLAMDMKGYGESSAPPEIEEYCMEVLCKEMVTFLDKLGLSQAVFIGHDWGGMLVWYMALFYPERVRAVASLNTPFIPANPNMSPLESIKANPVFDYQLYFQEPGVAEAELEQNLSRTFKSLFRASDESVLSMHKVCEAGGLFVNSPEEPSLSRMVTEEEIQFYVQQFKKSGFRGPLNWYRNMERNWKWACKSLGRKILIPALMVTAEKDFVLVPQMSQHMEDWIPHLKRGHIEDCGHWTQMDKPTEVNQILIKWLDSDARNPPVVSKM
From the text: Inspired by the reported crystallographic screening studies,[12],[13],[15] a series of aryl amide (12, 15–21) or urea (31–39) derivatives with a benzoxazolone head group were synthesized and assessed for inhibition of human recombinant sEH in a cell-free activity assay[27] (Tables 1 and 2). […] Consequently, compounds in which the amide group is attached to the benzoxazolone ring through NH could outperform their direct reversed analogues by more favorable interactions in the central pocket of sEH. In addition, simple methylation of the benzoxazolone NH in 17–18 engendered noticeable differences in sEH inhibition relative to the unmethylated counterparts 15–16, implying that a free NH with H-bond donor property at this location is also important for the observed potency. Subsequently, the positioning of the amide group at the 5-position of the benzoxazolone ring also retained the inhibitory activity.
Human recombinant sEH was expressed and purified as published before.[31] Briefly, Sf9 cells were infected with a recombinant baculovirus (obtained from Dr. Bruce Hammock, University of California, Davis, CA). Following 72 h of transfection, the cells were centrifuged and then sonicated (3 × 10 s at 4 °C) in lysis buffer comprising glycerol (10%), NaHPO4 (50 mM, pH 8), leupeptin (10 μg/mL), NaCl (300 mM), phenylmethanesulfonyl fluoride (1 mM), EDTA (1 mM), and soybean trypsin inhibitor (60 μg/mL). After centrifugation at 100,000g (60 min, 4 °C), the obtained supernatants were subjected to a benzylthio-sepharose-affinity chromatography and eluted with 4-fluorochalcone oxide in PBS containing 1 mM DTT and 1 mM EDTA for purification of sEH. The enzyme was dialyzed and concentrated (Millipore Amicon-Ultra-15 centrifugal filter), and the solution was further assayed for total protein content by a protein detection kit (Bio-Rad Laboratories, Munich, Germany). The epoxide hydrolase activity was measured using a fluorescence-based assay, as reported before.[27] In brief, sEH was diluted in Tris buffer (25 mM, pH 7) containing BSA (0.1 mg/mL) to a suitable enzyme concentration and pretreated with test compounds or 0.1% DMSO as vehicle for 10 min at room temperature. To start the reaction, 50 μM of the PHOME substrate (3-phenyl-cyano(6-methoxy-2-naphthalenyl)methyl ester-2-oxiraneacetic acid), a nonfluorescent compound that is enzymatically converted by sEH into fluorescent 6-methoxy-naphtaldehyde, was added at RT. The reaction was stopped by addition of ZnSO4 (200 mM) after 60 min, and fluorescence was measured (λem 465 nm, λex 330 nm) by employing a NOVOstar microplate reader (BMG LABTECH GmbH, Ortenberg, Germany). If required, the potential fluorescence of test compounds was subtracted from the readout.

monocytes = experiment: Cytotoxic activity in monocytes (MTT, metabolic activity after 24 h); format: cell-based, human; settings: metabolic activity (MTT) after 24 h, data not shown in main text (Figure S52)
From the text: The benzyl group appears as a frequently recurring chemical fragment in the architecture of amide or urea-type sEH inhibitors.[4] Therefore, we extracted this common fragment and combined it with benzoxazolone using a urea backbone with the aim of improving a sEH inhibitory potency in the newly designed analogues (Table 2). […] This implies that voluminous substituents at this position are better accommodated at the binding site. […] Taken together, 2- or appropriate 2,4-disubstitution patterns govern potent sEH inhibition in this series. Overall, the preliminary SAR in this work indicated a new favorable structural feature at the right- and left-hand side of the compounds to achieve potent sEH inhibition. Another aspect of characterizing the compounds is determining their cytotoxic activity; for this purpose, we used monocytes due to their high expression of sEH. By applying 33 and 38 to monocytes and measuring the metabolic activity after 24 h, we could exclude cytotoxic activity up to concentrations of 1 μM (data not shown).
The cytotoxic activities of compounds were assessed as previously described.[29] […] The absorbance was determined at 570 nm using a Multiskan Spectrum microplate reader (Thermo Fisher Scientific, Schwerte, Germany). […]

SMILES	sEH activity % of control at 1 μM (human recombinant sEH)	sEH activity % of control at 10 μM (human recombinant sEH)	IC50 (human recombinant sEH) [nM]	concentration up to which cytotoxic activity is excluded (monocytes) [nM]	melting point
O=C(NCc1ccccc1OC(F)(F)F)Nc1ccc2oc(=O)[nH]c2c1 [Compound 33, 3-(2-Oxo-2,3-dihydro-1,3-benzoxazol-5-yl)-1-{[2-(trifluoromethoxy)phenyl]methyl}urea]	1.9 ± 3.2 % of control	6.8 ± 5.9 % of control	0.39 ± 0.1	> 1000	–
O=C(NCc1ccc(Cl)cc1Cl)Nc1ccc2oc(=O)[nH]c2c1 [Compound 38, 1-[(2,4-Dichlorophenyl)methyl]-3-(2-oxo-2,3-dihydro-1,3-benzoxazol-5-yl)urea]	0.0 ± 0.0 % of control	0.0 ± 0.0 % of control	0.7 ± 0.08	> 1000	260.9 °C (dec.)
